Reference: US20130071432A1 (priority 2011, published 2013)

Columns and labels:
[1] = target: T1, full length RNase L activated by 2-5A (Homo sapiens, UniProt Q05823); assay: biochemical
T1 sequence (Q05823 1-741): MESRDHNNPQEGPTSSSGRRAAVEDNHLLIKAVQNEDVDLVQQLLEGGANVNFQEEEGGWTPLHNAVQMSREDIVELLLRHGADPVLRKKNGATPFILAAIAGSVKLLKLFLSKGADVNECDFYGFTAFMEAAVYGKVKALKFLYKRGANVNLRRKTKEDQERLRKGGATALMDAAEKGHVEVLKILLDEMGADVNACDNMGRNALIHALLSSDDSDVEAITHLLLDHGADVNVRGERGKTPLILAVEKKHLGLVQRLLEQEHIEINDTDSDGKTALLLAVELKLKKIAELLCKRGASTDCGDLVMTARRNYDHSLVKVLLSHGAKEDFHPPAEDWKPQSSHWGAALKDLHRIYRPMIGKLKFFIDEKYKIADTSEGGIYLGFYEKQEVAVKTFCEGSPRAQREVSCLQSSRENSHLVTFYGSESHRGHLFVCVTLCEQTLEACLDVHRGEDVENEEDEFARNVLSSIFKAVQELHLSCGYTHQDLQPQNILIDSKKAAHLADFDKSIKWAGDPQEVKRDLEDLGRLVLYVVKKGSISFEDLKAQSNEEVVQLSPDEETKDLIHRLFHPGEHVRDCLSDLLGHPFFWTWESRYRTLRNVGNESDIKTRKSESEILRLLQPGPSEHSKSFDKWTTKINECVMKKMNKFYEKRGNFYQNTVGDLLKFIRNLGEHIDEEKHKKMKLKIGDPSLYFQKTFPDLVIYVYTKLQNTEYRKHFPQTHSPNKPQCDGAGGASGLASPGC

in vitro [2] = conditions: human
in vitro [3] = conditions: human; remark: listed apart in the source
in vitro [4] = conditions: human, mouse, reduction in cell viability
[5] = in vivo; cited from earlier work
[6] = target: T2, constitutively active, truncated mutant RNase L(NΔ335) (Homo sapiens, UniProt Q05823); assay: biochemical
T2 sequence (Q05823 336-741 limits assumed): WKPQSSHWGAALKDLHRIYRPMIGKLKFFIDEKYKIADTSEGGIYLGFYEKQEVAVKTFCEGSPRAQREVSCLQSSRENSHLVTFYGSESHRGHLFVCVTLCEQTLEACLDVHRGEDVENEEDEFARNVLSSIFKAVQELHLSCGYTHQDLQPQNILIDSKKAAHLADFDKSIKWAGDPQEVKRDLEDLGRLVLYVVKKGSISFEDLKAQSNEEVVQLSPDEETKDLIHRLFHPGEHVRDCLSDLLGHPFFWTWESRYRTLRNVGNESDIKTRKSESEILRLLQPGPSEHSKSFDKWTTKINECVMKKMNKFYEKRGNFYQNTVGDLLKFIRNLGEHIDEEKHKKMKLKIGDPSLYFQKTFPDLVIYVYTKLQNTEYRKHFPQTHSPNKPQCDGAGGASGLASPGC

VSV = conditions: mouse, in vivo; cited from earlier work

Row | SMILES | IC50 [1] [nM] | cytotoxicity (in vitro [2]) [%] | cytotoxicity (in vitro [3]) [%] | cytotoxicity (in vitro [4]) [%] | serum concentrations [5] | IC50 [6] [nM] | induction of antiviral antibodies against VSV challenge (VSV)
1 | CCN(CC)CCNC(=O)c1c(C)[nH]c(/C=C2\C(=O)Nc3ccc(F)cc32)c1C [sunitinib] | 1400 | 60 | 60 | ~20 | equivalent to those of patients | 1400 | 
2 | O=P1(N(CCCl)CCCl)NCCCO1 (stereo not shown) [CPA, cyclophosphamide] |  |  |  |  |  |  | completely suppressed induction of antiviral antibodies
